Measurements as given in paper PMC5363837 (Circulation, 2017).
Each block holds one molecule with its values, some of them ahead of it. Bridge positions count the residues as written; N and C are the ends. Ends that are not written are not given here. Peptide text beside a SMILES is read from it.

How the values were obtained:
human apelin receptor [1] = molecular target: T1, human apelin receptor (Homo sapiens, UniProt P35414); assay: Receptor internalization assay (DiscoveRx), U2OS cells; assay type: cell-based
T1 sequence (P35414 1-380): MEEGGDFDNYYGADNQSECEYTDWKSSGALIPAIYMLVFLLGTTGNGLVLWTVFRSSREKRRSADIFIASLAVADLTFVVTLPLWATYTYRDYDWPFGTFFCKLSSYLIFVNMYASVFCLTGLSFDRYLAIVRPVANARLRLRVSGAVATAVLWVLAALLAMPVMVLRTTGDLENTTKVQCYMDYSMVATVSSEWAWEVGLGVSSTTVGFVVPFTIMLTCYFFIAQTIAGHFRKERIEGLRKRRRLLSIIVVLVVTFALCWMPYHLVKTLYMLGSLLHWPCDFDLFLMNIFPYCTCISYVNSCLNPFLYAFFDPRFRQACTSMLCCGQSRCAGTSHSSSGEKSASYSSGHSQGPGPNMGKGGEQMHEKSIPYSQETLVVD
Description: (§1) Inhibition of cAMP accumulation, β-arrestin recruitment, and receptor internalization assays were used to determine values of potency (pD2 [–log10 EC50]) and maximum response (EMAX). pD2 values were compared by using 1-way ANOVA with Tukey multiple comparison.
Responses measured in r elative light units were fitted to 4 parameter logistic
concentration response curves in GraphPad Prism 6 (La J olla, CA, USA) and values of
potenc y,pD 2 ( -log10 EC 50 (where EC 50 is the concentration producing half maximal response) ),
and maximum response (EM AX ) w ere calculat ed fo r each compound.Data were subs equentl y
Respon ses measured in relatve li ght units wer e fitted
(§2) to 4 parameter logistic concentration response curves in GraphPad Prism 6 (La J olla, CA,
(§3) USA) and values o f pD 2 ( -log10 EC 50) and maximum response (EM AX ) w er e calcul at ed for each
(§4) used as the refer ence ago nists in each assa y.
Internalisation a ssa ys w ere co nduct ed as previously des cribed1.U2OS cells artificially
ex pressing the human ap elin recepto r wer e seeded in Cell Plating medium in 96 -well plates and
incubated for 48 hours at 37 °C in 5% CO 2.
the cells for 3 hours at 37 °C. This was followed b y incubation with the detection reagents fo r
90 minutes at room temperature and luminescen ce readin g .D at a were an al y s ed as described
for the β -arrestin assa y .

human apelin receptor [2] = molecular target: T1, human apelin receptor; assay: Inhibition of forskolin-induced cAMP accumulation (DiscoveRx), CHO-K1 cells; assay type: cell-based; parameters: host or cells: CHO-K1
human apelin receptor [3] = molecular target: T1, human apelin receptor; assay: Competition binding of ELA-21 in normal and PAH human LV and RV homogenate; parameters: host or cells: CHO-K1; details: pooled homogenate, mean±SEM, n=3
Method: Experiments were conducted in homogenate of human ventricle or Chinese hamster ovary (CHO)-K1 cells expressing the human apelin receptor.
To investigate whether the affinit y of ELA peptides or the density of ELA binding sites is altered in human PAH competition binding experiments were repeated as described above using ELA-21 as the com peting li gand in LV and RV from pooled homogenate from six patients transplanted for PAH and LV and RV from six normal hearts as controls. Datafrom triplicate experiments were anal yzed usin g the iter ative non -linear curve fitting programs EBDA and LIGAND (KELL package, Biosoft, UK) to determine values of affinity (K D) and recepto r densit y (B M AX ). Values were compared for LV and RV between P AH and controls using Student’s 2- tailed t -test. […]

human apelin receptor [4] = molecular target: T1, human apelin receptor; assay: β-arrestin recruitment assay (DiscoveRx), CHO-K1 cells; assay type: cell-based; parameters: host or cells: CHO-K1
Description: as §1
β-Arrestin ass a ys wer e conducted as previousl y described1.CHO- K1 cells artificially
ex pressing the human ap elin recepto r wer e seeded in C ell P lating medium into 96-well plates
3μmol/L ) wer e diluted in Cell Plating mediumand added to the cells for 90 minutes at 37 °C..
Detection reagents were then added fo ra 2- hour incubation at room temperature
followed b y chemiluminescence r eadin g. Respon ses measured in relatve li ght units wer e fitted
as §2, §3, §4

human apelin receptor [5] = molecular target: T1, human apelin receptor; assay: Competition binding, [125I]apelin-13, homogenate of human left ventricle; details: read-out: pKi in human LV (converted)
Method: (§5) For structure activity studies competition binding experiments were conductedin triplicate in
(§6) homogenate of pooled human LV from cardiom yopathy patients as previousl y described 1.
(§7) Homogenate of human LV wa s incubat ed for 90 min with 0.1nmol/L [Glp 65,Nle75, T yr 77]
[125 I] apelin-13 in assa y buffer (mmol/ L: Tris 50, MgCl2 5, pH 7.4, 22 °C), in the presence of
(§8) (0.5pmol/ L-10μmol/L) ( n=3 each). Non- specific binding was defined using 1μmol/L
(§9) Equilibrium was broken b y centrifugation (20,000g for 10 min, 4 °C). Pellets
(§10) were washed with Tris-H Cl buffer (50 mmol/ L, pH 7.4, 4 °C), re-centrifuged and bound
(§11) radioactivity in final pellets counted. Data from triplicate experiments wer e anal yz ed using th e
(§12) iterative non-linear curve fitting programs EBDA and LIGAND (KELL package, Biosoft, UK)
(§13) or GraphPad Prism6 and to derive values of affinit y (ex pressed as the –log 10 of the dissociation

human apelin receptor [6] = molecular target: T1, human apelin receptor; assay: Competition binding in CHO-K1 cells expressing the human apelin receptor (Cerep); parameters: host or cells: CHO-K1
Method: Comptetition Binding Experiments
as §5, §6, §7, §8, §9, §10, §11, §12, §13
constant (pKi ±sem) ) and recepto r densit y (BM AX ± sem).The pK i and B M AX values for the thr ee

[7] = molecular target: T2, human apelin receptor expressed in CHO-K1 cells (human, UniProt P35414 1-380); assay: cell-based or functional assay
T2 sequence (looked up): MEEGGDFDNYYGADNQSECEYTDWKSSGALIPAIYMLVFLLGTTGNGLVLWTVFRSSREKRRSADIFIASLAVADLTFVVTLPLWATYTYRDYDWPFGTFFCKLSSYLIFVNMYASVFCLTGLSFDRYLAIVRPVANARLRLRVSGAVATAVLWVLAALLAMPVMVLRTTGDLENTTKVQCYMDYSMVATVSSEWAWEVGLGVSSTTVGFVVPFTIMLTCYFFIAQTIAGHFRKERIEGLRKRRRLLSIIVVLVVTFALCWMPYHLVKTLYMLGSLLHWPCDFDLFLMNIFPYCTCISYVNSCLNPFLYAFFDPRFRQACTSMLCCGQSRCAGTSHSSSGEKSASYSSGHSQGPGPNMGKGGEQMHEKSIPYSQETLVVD

[8] = molecular target: T2, human apelin receptor expressed in …; assay: radioligand binding; competition binding in CHO-K1 cells expressing the human apelin receptor; details: one partner purified

- Emax (human apelin receptor [1]; U2OS): 96 ± 2%
- EC50 (human apelin receptor [1]; U2OS cells, 3 hours, 37°C, mean±SEM, n=3-5 assays, 2-6 replicates, read-out: Internalization pD2 (converted)): 282 pM
- Emax (human apelin receptor [2]; CHO-K1): 101 ± 1%
- EC50 (human apelin receptor [2]; read-out: cAMP pD2 (converted)): 372 pM
- Ki (human apelin receptor [3]; PAH human left ventricle, read-out: pKi, LV PAH (converted)): 347 pM
- Ki (human apelin receptor [3]; PAH human right ventricle, read-out: pKi, RV PAH (converted)): 501 pM
- Ki (human apelin receptor [3]; normal human left ventricle, read-out: pKi, LV normal (converted)): 490 pM
- Ki (human apelin receptor [3]; normal human right ventricle, read-out: pKi, RV normal (converted)): 1050 pM
- Emax (human apelin receptor [4]; CHO-K1): 102 ± 1%
- EC50 (human apelin receptor [4]; read-out: β-Arrestin pD2 (converted)): 132 pM
- Ki (human apelin receptor [5]): 3020 pM
Molecule: CSCC[C@H](NC(=O)[C@@H]1CSSC[C@H](NC(=O)[C@H](CC(N)=O)NC(=O)[C@H](Cc2c[nH]cn2)NC(=O)[C@H](CCCCN)NC(=O)[C@H](CCCNC(=N)N)NC(=O)[C@@H](N)CC(C)C)C(=O)N[C@@H](CC(C)C)C(=O)N[C@@H](CCC(N)=O)C(=O)N[C@@H](CCCNC(=N)N)C(=O)N[C@@H](CCCNC(=N)N)C(=O)N1)C(=O)N1CCC[C@H]1C(=O)N[C@@H](CC(C)C)C(=O)N[C@@H](Cc1c[nH]cn1)C(=O)N[C@@H](CO)C(=O)N[C@@H](CCCNC(=N)N)C(=O)N[C@H](C(=O)N1CCC[C@H]1C(=O)N[C@@H](Cc1ccccc1)C(=O)N1CCC[C@H]1C(=O)O)C(C)C [ELA-21]

- fold drop in affinity versus ELA-32, ELA-21 and ELA-14 (human apelin receptor [6]): 100 fold
Molecule: CSCC[C@@H]1NC(=O)[C@@H](N)CSSC[C@@H](C(=O)N[C@@H](CCCNC(=N)N)C(=O)N[C@H](C(=O)N2CCC[C@H]2C(=O)N[C@@H](Cc2ccccc2)C(=O)N2CCC[C@H]2C(=O)O)C(C)C)NC(=O)[C@H](Cc2c[nH]cn2)NC(=O)[C@H](CC(C)C)NC(=O)[C@@H]2CCCN2C1=O [cyclo[1–6]ELA-11] (HELM PEPTIDE1{C.M.P.L.H.C.R.V.P.F.P}$PEPTIDE1,PEPTIDE1,1:R3-6:R3$$$V2.0; N-terminus and C-terminus assumed)

- cAMP assay, pD2 (-log10 EC50) [7]: 9.42
- β-arrestin recruitment assay, pD2 (-log10 EC50) [7]: 7.67
- pKi [8]: 7.27
Molecule: CMPLHCRVPFP (disulfide 1-6) [cyclo[1–6]ELA-11]
